Molecular target: T1, human recombinant P2X7 receptors (Homo sapiens, UniProt Q99572)
T1 construct: expressed in transfected cells; host or cells: HEK293
T1 sequence (Q99572 1-595): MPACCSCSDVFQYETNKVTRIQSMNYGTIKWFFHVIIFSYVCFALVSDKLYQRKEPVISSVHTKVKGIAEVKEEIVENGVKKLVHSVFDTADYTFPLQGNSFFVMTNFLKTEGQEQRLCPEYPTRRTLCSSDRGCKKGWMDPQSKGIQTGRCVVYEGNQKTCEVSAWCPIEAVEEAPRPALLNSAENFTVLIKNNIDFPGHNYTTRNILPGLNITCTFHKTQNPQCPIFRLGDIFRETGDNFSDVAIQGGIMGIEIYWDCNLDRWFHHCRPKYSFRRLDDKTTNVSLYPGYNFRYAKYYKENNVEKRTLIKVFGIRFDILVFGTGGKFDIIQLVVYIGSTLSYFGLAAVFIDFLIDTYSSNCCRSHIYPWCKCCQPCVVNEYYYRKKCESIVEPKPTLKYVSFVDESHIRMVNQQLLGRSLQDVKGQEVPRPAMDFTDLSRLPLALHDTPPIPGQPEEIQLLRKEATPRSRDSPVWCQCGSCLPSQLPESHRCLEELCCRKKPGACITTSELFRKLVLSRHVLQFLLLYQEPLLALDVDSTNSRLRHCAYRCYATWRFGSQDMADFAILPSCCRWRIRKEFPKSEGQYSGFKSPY
Test: Ethidium Accumulation Assay
Type: cell-based
Conditions: HEK293 cells expressing human recombinant P2X7; 1 mM ATP, 100 μM ethidium; 30 min preincubation at room temperature; read-out: Antagonist pIC50 for blocking ATP responses (cellular accumulation of ethidium) (converted)
Procedure: Studies were performed using NaCl assay buffer of the following composition (in mM): 140 mM NaCl, HEPES 10, N-methyl-D-glucamine 5, KCl 5.6, D-glucose 10, CaCl2 0.5 (pH 7.4). HEK293 cells, expressing human recombinant P2X7 receptors, were grown in poly-L-lysine pretreated 96 well plates for 18-24 h. (The cloning of the human P2X7 receptor is described in U.S. Pat. No. 6,133,434). The cells were washed twice with 350 μl of assay buffer before addition of 50 μl of antagonist. The cells were then incubated at room temperature (19-21° C.) for 30 min before addition of ATP and ethidium (100 μM final assay concentration). The ATP concentration was chosen to be close to the EC80 for the receptor type and was 1 mM for studies on the human P2X7 receptor. Incubations were continued for 8 or 16 min and were terminated by addition of 25 μl of 1.3M sucrose containing 5 mM of the P2X7 receptor antagonist reactive black 5 (Aldrich). Cellular accumulation of ethidium was determined by measuring fluorescence (excitation wavelength of 530 nm and emission wavelength of 620 nm) from below the plate with a Canberra Packard Fluorocount (Pangbourne, UK). Antagonist pIC50 values for blocking ATP responses were determined using iterative curve fitting techniques.

IC50 [nM]	SMILES
≤ 631	CC1=CC(=O)N(C2CC2)C1C(=O)NCc1ccc(Cl)cc1Cl (stereo not drawn) [Example 1, 1-cyclopropyl-N-[(2,4-dichlorophenyl)methyl]-3-methyl-5-oxo-2,5-dihydro-1H-pyrrole-2-carboxamide]
≤ 126	CCN1C(=O)c2ccccc2C1C(=O)NCc1cccc(C(F)(F)F)c1Cl (stereo not drawn) [Example 4, N-{[2-chloro-3-(trifluoromethyl)phenyl]methyl}-2-ethyl-3-oxo-2,3-dihydro-1H-isoindole-1-carboxamide]
≤ 126	CN1C(=O)c2ccccc2C1C(=O)NCc1ccc(Cl)cc1Cl (stereo not drawn) [Example 5, N-[(2,4-dichlorophenyl)methyl]-2-methyl-3-oxo-2,3-dihydro-1H-isoindole-1-carboxamide]

Further lines, the compound ahead of its results:

SMILES	IC50 [nM]
CCN1C(=O)c2ccccc2C1C(=O)NCc1ccc(Cl)cc1Cl (stereo not drawn) [Example 2, N-[(2,4-dichlorophenyl)methyl]-2-ethyl-3-oxo-2,3-dihydro-1H-isoindole-1-carboxamide]	≤ 631
CN1C(=O)c2ccccc2C1C(=O)NCc1ccc(F)cc1Cl (stereo not drawn) [Example 6, N-[(2-chloro-4-fluorophenyl)methyl]-2-methyl-3-oxo-2,3-dihydro-1H-isoindole-1-carboxamide]	≤ 631
CN1C(=O)c2ccccc2C1C(=O)NCc1cccc(C(F)(F)F)c1Cl (stereo not drawn) [Example 7, N-{[2-chloro-3-(trifluoromethyl)phenyl]methyl}-2-methyl-3-oxo-2,3-dihydro-1H-isoindole-1-carboxamide]	≤ 126

Reference: patent US7935832B2, “Pyrrole and isoindole carboxamide derivatives as P2X7 modulators” (Glaxo Group Limited, priority 2007, dated 2011)
